Results as given in patent publication US7109243B2 (IRM LLC, priority 2003, dated 2006).

Columns and labels:
Cathepsin S = Cathepsin S (Homo sapiens, UniProt P25774); experiment: Cathepsin S inhibition assay (fluorogenic peptide substrate); format: biochemical; conditions: Table II, compounds of Formula I; read-out: Ki Cat. S
In short: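 Ki values come from nonlinear fitting of inhibited hydrolysis rates, taking free and total inhibitor concentrations as equal. Rates measured as rising fluorescence at 380/450 nm after reaction start with 50 μM final acetyl-HPVK-aminocarbamoylcoumarin.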

Cathepsin K = biological target: T1, Cathepsin K (Homo sapiens, UniProt P43235); experiment: Cathepsin K inhibition assay (fluorogenic peptide substrate); selectivity ratio vs cathepsin S; format: biochemical; conditions: ratio of cathepsin K inhibition constant to cathepsin S inhibition constant; Table II
T1 sequence (P43235 115-329): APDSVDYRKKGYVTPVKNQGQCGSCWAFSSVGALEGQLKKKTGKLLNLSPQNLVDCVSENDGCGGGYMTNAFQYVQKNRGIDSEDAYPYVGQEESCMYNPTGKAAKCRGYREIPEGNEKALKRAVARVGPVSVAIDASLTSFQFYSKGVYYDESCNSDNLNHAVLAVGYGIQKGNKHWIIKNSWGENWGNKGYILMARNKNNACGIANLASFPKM
In short: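 Fluorogenic kinetic assay, started with acetyl-Lys-His-Pro-Lys-aminocarbamoylcoumarin at 40 μM final, hydrolysis followed at ex 380/em 450 nm. Apparent inhibition constants from progress curves, converted to competitive inhibition constants. Selectivity expressed as isozyme inhibition constant divided by cathepsin S inhibition constant.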

Chain of Cathepsin S (P25774 115-331, species assumed): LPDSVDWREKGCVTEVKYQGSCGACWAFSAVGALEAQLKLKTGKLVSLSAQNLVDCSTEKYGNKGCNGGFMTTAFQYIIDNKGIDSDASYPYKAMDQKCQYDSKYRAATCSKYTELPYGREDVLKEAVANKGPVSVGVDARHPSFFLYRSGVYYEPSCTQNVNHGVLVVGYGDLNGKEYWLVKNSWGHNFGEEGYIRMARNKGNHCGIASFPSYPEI

Structure (SMILES)	Ki (Cathepsin S) [nM]	Selectivity for Cat. S over Cat. K (Cathepsin K)
COc1ccc(NCCNC(=O)[C@H](CCC2CCCCC2)NC(=O)c2ccc(-n3cncn3)cc2)cc1 [Compound 143, (S)-N-{3-Cyclohexyl-1-[2-(4-methoxy-phenylamino)-ethylcarbamoyl]-propyl}-4-[1,2,4]triazol-1-yl-benzamide]	< 1000	++ (++, >100)
CC(C(=O)N[C@@H](CC1CCCCC1)C(=O)NCCNc1ccc(F)cc1)c1ccc(Cl)cc1 (stereo partly drawn) [Compound 312, 2-(4-Chloro-phenyl)-N-{2-cyclohexyl-1-(S)-[2-(4-fluoro-phenylamino)-ethylcarbamoyl]-ethyl}-propionamide]	< 100	++ (++, >100)
COc1cc(OC)nc(-c2ccc(C(=O)N[C@@H](CC3CCCCC3)C(=O)NCCNc3ccc(OC(F)(F)F)cc3)cc2)n1 [Compound 80, N-(S)-{2-cyclohexyl-1-[2-(4-trifluoromethoxy-phenylamino)-ethylcarbamoyl]-ethyl}-4-(4,6-dimethoxy-pyrimidin-2-yl)-benzamide]	< 1000	+++ (+++, >1000)
Cc1nc(N)sc1C(=O)N[C@@H](CC1CCCCC1)C(=O)NCCNc1ccc(OC(F)(F)F)cc1 [Compound 250, 2-Amino-4-methyl-thiazole-5-carboxylic acid (S)-{2-cyclohexyl-1-[2-(4-trifluoromethoxy-phenylamino)-ethylcarbamoyl]-ethyl}-amide]	< 100	++ (++, >100)
COc1ccc(NCCNC(=O)[C@H](CC2CCCCC2)NC(=O)c2cc(C)c(OCc3ccccc3)c(C)c2)cc1 [Compound 110, (S)-4-Benzyloxy-N-{2-cyclohexyl-1-[2-(4-methoxy-phenylamino)-ethylcarbamoyl]-ethyl}-3,5-dimethyl-benzamide]	< 100	++ (++, >100)
COc1ccc(NCCNC(=O)[C@H](CC2CCCCC2)NC(=O)c2cnn(-c3ccccc3)c2C(F)(F)F)cc1 [Compound 115, (S)-1-Phenyl-5-trifluoromethyl-1H-pyrazole-4-carboxylic acid {2-cyclohexyl-1-[2-(4-methoxy-phenylamino)-ethylcarbamoyl]-ethyl}-amide]	< 100	+++ (+++, >1000)
COc1ccc(NCCNC(=O)[C@H](Cc2ccc(-c3ccc(OC)c(OC)c3)cc2)NC(=O)c2cccc(C)c2)cc1 [Compound 281, (S)-N-{2-(3′,4′-Dimethoxy-biphenyl-4-yl)-1-[2-(4-methoxy-phenylamino)-ethylcarbamoyl]-ethyl}-3-methyl-benzamide]	< 1000	++ (++, >100)
COc1ccc(NCCNC(=O)[C@H](CC2CCCCC2)NC(=O)c2ccc(-c3cccc(OC)c3)cc2)cc1 [Compound 172, (S)-3′-Methoxy-biphenyl-4-carboxylic acid {2-cyclohexyl-1-[2-(4methoxy-phenylamino)-ethylcarbamoyl]-ethyl}-amide]	< 100	+++ (+++, >1000)
COc1ccc(NCCNC(=O)C(NC(=O)c2cccc(C)c2)c2cccc(Cl)c2Cl)cc1 (stereo not shown) [Compound 223, N-{(2,3-Dichloro-phenyl)-[2-(4-methoxy-phenylamino)-ethylcarbamoyl]-methyl}-3-methyl-benzamide]	< 1000	++ (++, >100)
COc1cccc(-c2cccc(C(=O)N[C@@H](CC3CCCCC3)C(=O)NCCNc3ccc(OC(F)(F)F)cc3)c2)c1 [Compound 74, 3′-Methoxy-biphenyl-3-carboxylic acid (S)-{2-cyclohexyl-1-[2-(4-trifluoromethoxy-phenylamino)-ethylcarbamoyl]-ethyl}-amide]	< 100	+++ (+++, >1000)
COc1ccc(NCCNC(=O)C(NC(=O)c2cccc(C)c2)c2cccc3ccccc23)cc1 (stereo not shown) [Compound 218, N-{[2-(4-Methoxy-phenylamino)-ethylcarbamoyl]-naphthalen-1-yl-methyl}-3-methyl-benzamide]	< 1000	+++ (+++, >1000)
